Common to all, as to experiment: Calcium imaging of cells transfected with the GPCR (Table 1)
Common to all, as to type: cell-based

The target of one assay is T1, MrgA1 (mouse MrgprA1) (Mus musculus, UniProt Q91WW5).
T1 construct: host or cells: HeLa cells
T1 sequence (Q91WW5 1-304): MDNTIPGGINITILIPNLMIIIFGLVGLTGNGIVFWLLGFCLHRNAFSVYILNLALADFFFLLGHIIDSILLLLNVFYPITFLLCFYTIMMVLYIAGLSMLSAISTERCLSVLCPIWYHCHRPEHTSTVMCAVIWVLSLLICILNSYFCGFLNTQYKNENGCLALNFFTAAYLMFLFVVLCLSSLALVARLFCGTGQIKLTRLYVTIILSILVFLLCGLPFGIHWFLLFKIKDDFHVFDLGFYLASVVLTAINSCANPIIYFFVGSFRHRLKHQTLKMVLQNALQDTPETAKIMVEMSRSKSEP
Conditions: for inhibition of SP-induced activation of mouse MrgprA1: FIG. 6a: SP 5 μM, inhibitors 10 μM, FK888 10 μM; for activation of mouse MrgprA1 by the substance (in words): NPFF 50 μM, SP at nanomolar concentrations. The method, then: (§1) human MRGPRX2 was isolated by PCR from human genomic DNA using the forward and reverse primers, […] (SEQ. ID. NO: 3) and […] (SEQ. ID. NO: 4), and cloned into pcDNA3.1(−). The mouse MrgprA1 cDNA expression clone was purchased from ORIGENE Technologies. The mouse MrgprB2 coding sequences were PCR-amplified from mouse genomic DNA using the primer pair, […] (SEQ. ID. NO: 5) and […] (SEQ. ID. NO: 6), and cloned into pcDNA3.1 (−).
(§2) 10 μg of expression vector (human MRGPRX2, mouse MrgprA1 or NK1) and 10 μl of LIPOFECTAMINE 2000 transfection reagent were diluted into 0.5 ml of DMEM and separately left at room temperature (RT) for 5 min. They were then mixed and incubated at RT for 20 minutes prior to being added to HeLa cells. HeLa cells were grown to confluence, trypsinized and 1×10^6 cells were pelleted in a 15 ml tube by centrifugation at 1000 rpm for 5 minutes. The DMEM-LIPOFECTAMINE 2000-DNA mixture (1 ml) was then added to the cell pellet, suspended and incubated at RT for 5 minutes. 2 ml of complete DMEM with 10% FBS without antibiotics were added to the tube, mixed by inverting the tube, plated into a 96-well glass bottom plate at 50,000 cells/well, and placed in a 37° C. CO2 incubator for 3 hours. HeLa cells transfected with salmon sperm DNA were plated as a control. The medium was changed after 3 hours and left in the incubator. 24 hours after transfection, the medium in the wells was removed and 100 μl of complete DMEM containing 2 μM of FURA-2 were added to each well and left at room temperature in the dark for 1 hr. Following loading with FURA-2, the medium was removed, washed with PBS and replaced with 90 μl of HEPES-buffered saline (20 mM HEPES, 115 mM NaCl, 5.4 mM KCl, 2 mM CaCl2, 0.8 mM MgCl2, 13.8 mM glucose, pH 7.4).
(§3) Calcium imaging was performed immediately after loading cells with Fura-2, using a ZEISS Axiovert 200M microscope platform equipped with a flipping filter wheel for ratiometric imaging. Axiovision software, version 4.6 was used for calcium image analysis of the cells excited at 340 nm and 380 nm. Agonists were added at 15 seconds after the start of the excitation procedure. Antagonists were added five minutes before imaging with the agonists. Images were taken every 5 seconds, including at zero time, during a 90 second period or longer if required. The software later analyzed all images taken during each excitation period. Ratiometric changes were measured in 10-20 cells in each individual experiment. An average of the fluorescence of the cells in each image was calculated and plotted against time in seconds.
HeLa cells transfected with human MRGPRX2, mouse MrgprA1 and NK1 cDNAs were subjected to ratiometric imaging as described above with SP at concentrations from 0.1 nM-50 μM. Each of the concentration dependent readings was performed in triplicate. Maximum intensities at each of the dilutions were calculated and plotted against concentration using GraphPad Prism software. Error bars represent SEM.
The top row lists ligands that have been tested versus the various receptors, both in the absence and presence of QWF.

A further assay has as its target T2, MrgX2 (human MRGPRX2) (Homo sapiens, UniProt Q96LB1).
T2 construct: expressed in transfected cells; host or cells: HeLa cells, pcDNA3.1(-)
T2 sequence (Q96LB1 1-330): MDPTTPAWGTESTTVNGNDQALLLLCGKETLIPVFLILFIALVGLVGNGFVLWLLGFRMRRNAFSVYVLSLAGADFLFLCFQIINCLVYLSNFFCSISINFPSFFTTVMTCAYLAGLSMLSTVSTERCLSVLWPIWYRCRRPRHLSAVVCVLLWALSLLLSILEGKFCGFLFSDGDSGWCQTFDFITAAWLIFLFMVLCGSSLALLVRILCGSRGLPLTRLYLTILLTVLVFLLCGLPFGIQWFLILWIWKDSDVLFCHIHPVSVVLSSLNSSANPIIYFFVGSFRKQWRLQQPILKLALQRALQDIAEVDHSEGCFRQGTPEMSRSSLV
As to conditions: for inhibition of SP-induced activation of human MRGPRX2: FIG. 6a: SP 500 nM, inhibitors 1 μM, FK888 10 μM. The method, then: as §1, §2, §3
Each of the concentration dependent readings was performed in triplicate. Maximum intensities at each of the dilutions were calculated and plotted against concentration using GraphPad Prism software. Error bars represent SEM.

A further assay deals with T3, MrgX1 (human MRGPRX1) (Homo sapiens, UniProt Q96LB2).
T3 construct: expressed in transfected cells; host or cells: HeLa cells, pcDNA3.1(-)
The method, then: Human NK1 cDNA was obtained from LIFE Technologies, PCR cloned with Xho I-Hind III ends and cloned into pcDNA3.1(−). Mouse NK2 and NK3 expression-ready vectors were obtained from […] (Piscataway, N.J.). All other Mrgprs (human MRGPRX1, human MRGPRX2, human MRGPRX3, human MRGPRX4, mouse MrgprA2a, mouse MrgprA2b, mouse MrgprA3, mouse MrgprA4, mouse MrgprA9, mouse MrgprA10, mouse MrgprB4 and mouse MrgprB5) were cloned by PCR from genomic DNAs and inserted into pcDNA3.1 (−).
as §2, with “hr.” for “hr. Following loading with FURA-2, the medium was removed, washed with PBS and replaced with 90 μl of HEPES-buffered saline (20 mM HEPES, 115 mM NaCl, 5.4 mM KCl, 2 mM CaCl2, 0.8 mM MgCl2, 13.8 mM glucose, pH 7.4).”
as §3

“Also recorded” adds a separate entry of the source.

T3 sequence (Q96LB2 whole entry): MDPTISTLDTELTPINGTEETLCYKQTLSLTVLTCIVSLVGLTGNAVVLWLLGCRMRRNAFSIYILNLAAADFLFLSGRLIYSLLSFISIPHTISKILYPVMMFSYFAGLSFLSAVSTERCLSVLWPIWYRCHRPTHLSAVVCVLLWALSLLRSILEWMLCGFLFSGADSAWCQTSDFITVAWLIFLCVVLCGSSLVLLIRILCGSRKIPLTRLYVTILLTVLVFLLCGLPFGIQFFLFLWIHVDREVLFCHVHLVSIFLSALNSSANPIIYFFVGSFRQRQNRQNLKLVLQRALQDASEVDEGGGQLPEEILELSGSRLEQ

Turning to `FC(F)(F)c1cc(CO[C@H]2CCCN[C@H]2c2ccccc2)cc(C(F)(F)F)c1` [L-733060], the “inhibition of SP-induced activation of mouse MrgprA1” value (from here on “inhibition … of mouse MrgprA1”) on MrgA1 (mouse MrgprA1) is on record as “did not impact”; at MrgA1 (mouse MrgprA1) (listed as L733060) it was “not”. At MrgX2 (human MRGPRX2), the “inhibition of SP-induced activation of human MRGPRX2” value is reported as “did not impact”.
As for “Boc-Gln-D-Trp(Formyl)-Phe benzyl ester trifluoroacetate [QWF]”, on MrgA1 (mouse MrgprA1), the “inhibition of mMrgprA1 activation by compound 48/80” value was “inhibits” and the “inhibition … of mouse MrgprA1” value was “excellent inhibitor; also recorded: potent antagonist; also recorded: inhibits; also recorded: blocks”. In addition, at MrgX2 (human MRGPRX2), the “inhibition of hMRGPRX2 activation by compound 48/80” value is on record as “inhibits” and the “inhibition of SP-induced activation of human MRGPRX2” value was “excellent inhibitor; also recorded: potent antagonist; also recorded: inhibits”. Further, the “inhibition of human MRGPRX2 activation by atracurium and ciprofloxacin” value at MrgX2 (human MRGPRX2) (FIG. 8a) is “antagonized; also recorded: inhibits”. In addition, on MrgX1 (human MRGPRX1) (FIG. 7c: CQ 100 μM, QWF 100 μM), the “inhibition of human MRGPRX1 activation by chloroquine (CQ)” value is “does not affect; also recorded: does not inhibit”.
As to `C[C@@H](O[C@H]1OCCN(Cc2n[nH]c(=O)[nH]2)[C@H]1c1ccc(F)cc1)c1cc(C(F)(F)F)cc(C(F)(F)F)c1` [aprepitant], the “inhibition … of mouse MrgprA1” value on MrgA1 (mouse MrgprA1) is “did not impact and not”. Moreover, on MrgX2 (human MRGPRX2), the “inhibition of SP-induced activation of human MRGPRX2” value is on record as “did not impact”.
As for “SLIGRL: tethered hexapeptide ligand of mouse PAR2 (SEQ ID NO: 7)”, the “activation of mouse MrgprA1 by the substance (in words)” value with MrgA1 (mouse MrgprA1) was “activates”. In the assay with MrgX2 (human MRGPRX2) (NPFF 50 μM, capsaicin 3 μM, SP at nanomolar concentrations), the “activation of human MRGPRX2 by the substance (in words)” value was “activates”.
As to “SP: inflammatory undecapeptide neuropeptide of the tachykinin family, synthesized by GenScript”, the “activation of mouse MrgprA1 by the substance (in words)” value with MrgA1 (mouse MrgprA1) is “activates; also recorded: specifically activated”. Besides, the “activation of human MRGPRX1 by the substance (in words)” value in the assay with MrgX1 (human MRGPRX1) (SP 10 μM (FIG. 9), chloroquine 100 μM (FIG. 7c)) is listed as “does not activate”.
